Measurements published in patent US8658801B2, “Pesticides containing a bicyclic bisamide structure” (Syngenta Crop Protection, LLC, priority 2006, dated 2014).

Experiments:
[1] = test system: Spodoptera littoralis (Egyptian Cotton Leafworm); assay: Example B1: activity against Spodoptera littoralis, larvicide, feeding/residual contact, preventive (cotton leaf discs); format: in vivo; conditions: foliar, 72 h, 3 days after treatment, L1 larvae
Description: Activity Against Spodoptera littoralis (Egyptian Cotton Leafworm)
(§1) (Larvicide, Feeding/Residual Contact Activity, Preventive)
The samples are checked for mortality, repellent effect, feeding behaviour, and growth regulation 3 days after treatment. In this test, compounds listed in Table P above show good activity. In particular compounds P.1, P.2, P.3, P.4, P.5, P.6, P.7, P.9, P.10, P.11, P.12, P.13, P.15, P.16, P.17, P.18, P.19, P.20, P.21, P.22, P.23, P.24, P.25, P.26, P.27, P.28, P.29, P.30, P.31, P.32, P.33, P.34, P.35, P.36, P.37, P.38, P.39, P.40, P.41, P.42, P.43, P.44, P.45, P.46, P.47, P.48, P.49, P.50, P.51, P.52, P.53, P.54, P.55, P.56, P.57, P.58, P.59, P.60, P.61, P.63, P.64, P.67, P.68 and P.70 show an activity of over 80% at a concentration of 400 ppm.

[2] = test system: Diabrotica balteata (Corn Root Worm); assay: Example B4: Diabrotica balteata, larvicide, feeding/residual contact, preventive; format: in vivo; conditions: 120 h, 5 days incubation, L2 larvae
Procedure: Diabrotica balteata (Corn Root Worm)
as §1
After drying, the MTP's are infested with larvae (L2)(6-10 per well). After an incubation period of 5 days, samples are checked for larval mortality, antifeedant and growth regulation. In this test, compounds listed in Table P above show good activity. In particular compounds P.1, P.2, P.5, P.6, P.10, P.11, P.12, P.13, P.15, P.16, P.17, P.18, P.19, P.24, P.25, P.27, P.28, P.29, P.30, P.31, P.33, P.34, P.35, P.37, P.38, P.39, P.42, P.43, P.44, P.45, P.46, P.47, P.48, P.49, P.50, P.52, P.53, P.65, P.67, P.68, P.69, P.70, P.71, P.72, P.75, P.78, and P.79 show an activity of over 80% at a concentration of 400 ppm.

[3] = test system: Heliothis virescens (Tobacco Budworm); assay: Example B2: activity against Heliothis virescens, ovo-larvicide, feeding/contact, curative; format: in vivo; conditions: 96 h, 4 days incubation, eggs 0-24 h old
Procedure: Activity Against Heliothis virescens (Tobacco Budworm)
(Ovo-Larvicide, Feeding/Contact Activity, Curative)
Eggs (0-24 h old) are placed in 24-well microtiter plate on artificial diet and treated with test solutions by pipetting. After an incubation period of 4 days, samples are checked for egg mortality, larval mortality, and growth regulation.

[4] = test system: Plutella xylostella (Diamond Back Moth); assay: Example B3: Plutella xylostella, larvicide, feeding/residual contact, preventive (artificial diet MTP); format: in vivo; conditions: 120 h, 5 days incubation, L2 larvae
Procedure: Plutella xylostella (Diamond Back Moth)
as §1
24-well microtiter plate (MTP) with artificial diet is treated with test solutions by pipetting. After drying, the MTP's are infested with larvae (L2)(10-15 per well). After an incubation period of 5 days, samples are checked for larval mortality, antifeedant and growth regulation. In this test, compounds listed in Table P above show good activity. In particular compounds P.1, P.2, P.3, P.4, P.5, P.6, P.7, P.9, P.10, P.11, P.12, P.13, P.15, P.16, P.17, P.18, P.19, P.20, P.21, P.22, P.23, P.25, P.26, P.27, P.28, P.29, P.30, P.31, P.32, P.33, P.34, P.35, P.36, P.37, P.38, P.39, P.40, P.41, P.42, P.43, P.44, P.46, P.47, P.48, P.49, P.50, P.51, P.52, P.53, P.54, P.55, P.56, P.57, P.58, P.59, P.60, P.61, P.63, P.64, P.67, P.68, P.69 P.70, P.72, P.74, P.77, P78 and P.79 show an activity of over 80% at a concentration of 400 ppm.

[5] = test system: Myzus persicae (Green Peach Aphid); assay: Example B5: activity against Myzus persicae, mixed population, feeding/residual contact, preventive (sunflower leaf discs); conditions: foliar, 144 h, read-out: activity
[6] = test system: Thrips tabaci (Onion Thrips); assay: Example B7: activity against Thrips tabaci, mixed population, feeding/residual contact, preventive; conditions: 144 h, read-out: activity

Measured: pest or weed control at 400 ppm

CC(C)NC(=O)c1c(NC(=O)c2cc(C(F)(F)F)nn2-c2ncccc2Cl)ccc2cc[nH]c12 [P.1]
> 80%: [1] | [2] | [3] | [4]

O=C(NCC1CC1)c1c(NC(=O)c2cc(C(F)(F)F)nn2-c2ncccc2Cl)ccc2cc[nH]c12 [P.2]
not listed: [6]
> 80%: all other assays above

CC(C)NC(=O)c1c(NC(=O)c2cc(C(F)(F)F)nn2-c2ncccc2Cl)ccc2cn[nH]c12 [P.3]
> 80%: [1] | [3] | [6] | [4]

O=C(NCC1CC1)c1c(NC(=O)c2cc(C(F)(F)F)nn2-c2ncccc2Cl)ccc2cn[nH]c12 [P.4]
> 80%: [1] | [3] | [4]

O=C(NC1(C2CC2)CC1)c1c(NC(=O)c2cc(C(F)(F)F)nn2-c2ncccc2Cl)ccc2cn[nH]c12 [P.5]
> 80%: [1] | [2] | [3] | [4]

CNC(=O)c1c(NC(=O)c2cc(C(F)(F)F)nn2-c2ncccc2Cl)ccc2cn[nH]c12 [P.6]
> 80%: [1] | [2] | [3] | [4]

CSCC(C)(C)NC(=O)c1c(NC(=O)c2cc(C(F)(F)F)nn2-c2ncccc2Cl)ccc2cn[nH]c12 [P.7]
> 80%: [1] | [3] | [4]

CC(C)(CS(C)(=O)=O)NC(=O)c1c(NC(=O)c2cc(C(F)(F)F)nn2-c2ncccc2Cl)ccc2cn[nH]c12 [P.9]
> 80%: [1] | [3] | [5] | [4]

Cc1cc2c(ccc(C)[n+]2[O-])c(C(=O)NC(C)C)c1NC(=O)c1cc(C(F)(F)F)nn1-c1ncccc1Cl [P.21]
> 80%: [1] | [3] | [4]

CCNC(=O)c1c(NC(=O)c2cc(C(F)(F)F)nn2-c2ncccc2Cl)c(C)cc2nc(C)ccc12 [P.23]
> 80%: [1] | [3] | [4]

CCCc1nc2cc(C)c(NC(=O)c3cc(C(F)(F)F)nn3-c3ncccc3Cl)c(C(=O)NC(C)C)c2cc1CC [P.24]
> 80%: [1] | [2]

N#Cc1cc2cn[nH]c2c(C(=O)NC2(C3CC3)CC2)c1NC(=O)c1cc(C(F)(F)F)nn1-c1ncccc1Cl [P.26]
> 80%: [1] | [3] | [6] | [4]

COc1cc(C(=O)Nc2c(Cl)cc3c(Br)n[nH]c3c2C(=O)NC(C)C)n(-c2ncccc2Cl)n1 [P.63, 3-bromo-5-chloro-6-{[2-(3-chloro-pyridin-2-yl)-5-methoxy-2H-pyrazole-3-carbonyl]-amino}-1H-indazole-7-carboxylic acid isopropylamide]
> 80%: [1] | [3] | [6] | [4]

COc1cc(C(=O)Nc2c(Cl)cc3c(Br)n[nH]c3c2C(=O)NC2(C3CC3)CC2)n(-c2ncccc2Cl)n1 [P.64, 3-bromo-5-chloro-6-{[2-(3-chloro-pyridin-2-yl)-5-methoxy-2H-pyrazole-3-carbonyl]-amino}-1H-indazole-7-carboxylic acid bicyclopropyl-1-ylamide]
> 80%: [1] | [3] | [6] | [4]

Cc1n[nH]c2c(C(=O)NC(C)C)c(NC(=O)c3cc(C(F)(F)F)nn3-c3ncccc3Cl)c(Cl)cc12 [P.69, 5-chloro-6-{[2-(3-chloro-pyridin-2-yl)-5-trifluoromethyl-2H-pyrazole-3-carbonyl]-amino}-3-methyl-1H-indazole-7-carboxylic acid isopropylamide]
> 80%: [2] | [3] | [4]

Cc1n[nH]c2c(C(=O)NC3(C4CC4)CC3)c(NC(=O)c3cc(C(F)(F)F)nn3-c3ncccc3Cl)c(Cl)cc12 [P.72, 5-chloro-6-{[2-(3-chloro-pyridin-2-yl)-5-trifluoromethyl-2H-pyrazole-3-carbonyl]-amino}-3-methyl-1H-indazole-7-carboxylic acid bicyclopropyl-1-ylamide]
> 80%: [2] | [3] | [4]

CNC(=O)c1c(NC(=O)c2cc(C(F)(F)F)nn2-c2ncccc2Cl)ccc2cccnc12 [P.74, 7-{[2-(3-chloro-pyridin-2-yl)-5-trifluoromethyl-2H-pyrazole-3-carbonyl]-amino}-quinoline-8-carboxylic acid methylamide]
> 80%: [3] | [4]

CC(C)NC(=O)c1c(NC(=O)c2cc(C(F)(F)F)nn2-c2ncccc2Cl)ccc2ncccc12 [P.75, 6-{[2-(3-chloro-pyridin-2-yl)-5-trifluoromethyl-2H-pyrazole-3-carbonyl]-amino}-quinoline-5-carboxylic acid isopropylamide]
> 80%: [2]

CNC(=O)c1c(NC(=O)c2cc(C(F)(F)F)nn2-c2ncccc2Cl)c(C)cc2ncccc12 [P.77, 6-{[2-(3-chloro-pyridin-2-yl)-5-trifluoromethyl-2H-pyrazole-3-carbonyl]-amino}-7-methyl-quinoline-5-carboxylic acid methylamide]
> 80%: [3] | [4]

C#Cc1cc2cn[nH]c2c(C(=O)NC2(C3CC3)CC2)c1NC(=O)c1cc(C(F)(F)F)nn1-c1ncccc1Cl [P.79, 6-{[2-(3-chloro-pyridin-2-yl)-5-trifluoromethyl-2H-pyrazole-3-carbonyl]-amino}-5-ethynyl-1H-indazole-7-carboxylic acid bicyclopropyl-1-ylamide]
> 80%: [2] | [4]
